The results in this text go back to patent US9447087B2, “Galactokinase inhibitors for the treatment and prevention of associated diseases and disorders” (UNIVERSITY OF UTAH RESEARCH FOUNDATION, priority 2011, dated 2016).

The target of this experiment is GALK (Homo sapiens (Human), UniProt P51570). Description: primary qHTS assay for inhibitors of GALK (KinaseGlo ATP depletion). The class given is biochemical. The arrangement: GALK Assay Efficacy: unit not given here. The conditions noted are these: 5 nM GALK, 35 μM ATP, 1 hr incubation. Here is the method: Assay details and protocol: The primary assay monitored ATP depletion using Promega's KinaseGlo™ technology, where ATP levels are measured through luminescence generated from firefly luciferase, a bioluminescent ATP-dependent enzymes. […] This was used as the positive control for the assay. […]
GALK, sequence (P51570 whole entry): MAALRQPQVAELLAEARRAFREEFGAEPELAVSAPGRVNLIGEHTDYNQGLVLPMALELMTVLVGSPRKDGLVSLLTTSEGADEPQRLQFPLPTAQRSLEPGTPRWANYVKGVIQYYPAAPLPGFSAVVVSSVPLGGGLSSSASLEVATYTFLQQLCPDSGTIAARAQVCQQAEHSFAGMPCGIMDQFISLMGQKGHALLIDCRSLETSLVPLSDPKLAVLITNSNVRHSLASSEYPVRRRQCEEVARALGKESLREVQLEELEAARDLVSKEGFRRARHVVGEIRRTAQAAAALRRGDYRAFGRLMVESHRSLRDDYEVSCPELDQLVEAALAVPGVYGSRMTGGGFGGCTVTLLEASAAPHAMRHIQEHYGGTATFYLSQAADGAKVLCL
On to `CC1(C)N=C(Nc2nc3ccccc3o2)NC2=C1C(=O)CCC2` [Compound 5], for which the IC50 – broadly, the concentration that gives 50% inhibition – is 32.6 µM. On the same count and under the same terms, in the case of `CC1(C)CC(=O)C2=C(C1)NC(Nc1nc3ccccc3o1)=NC21CCCCC1` [Compound 7] it was 5.17 µM.

Compound `O=C1CCCC2=C1[C@@]1(CCC(c3ccccc3)C1)N=C(Nc1nc3ccccc3o1)N2` (stereo partly shown) [Compound 12] displayed an IC50 of 47.3 µM. Still for that read-out and setting: for `CC1CCC2(C1)N=C(Nc1nc3ccccc3o1)NC1=C2C(=O)CCC1` (stereo not shown) [Compound 14] the value was 11.9 µM; for `O=C1CCC2=C1C(c1ccccc1Cl)N=C(Nc1nc3ccccc3o1)N2` (stereo not shown) [Compound 16], 9.43 µM; for `O=C1CCCC2=C1C(c1ccccc1Cl)N=C(Nc1nc3ccccc3o1)N2` (stereo not shown) [Compound 17], 0.595 µM.

Compound `O=C1CCCC2=C1C1(CCSC1)N=C(Nc1nc3ccccc3o1)N2` (stereo not shown) [Compound 21] yielded an IC50 of 2.66 µM. Still for that read-out and setting: in the case of `O=C1CCCC2=C1C1(CCSCC1)N=C(Nc1nc3ccccc3o1)N2` [Compound 22] it was 1.06 µM. `O=C1CCCC2=C1C1(CCCOC1)N=C(Nc1nc3ccccc3o1)N2` (stereo not shown) [Compound 23] had an IC50 of 33.5 µM. On to `O=C1CCCC2=C1C1(CCS(=O)(=O)C1)N=C(Nc1nc3ccccc3o1)N2` (stereo not shown) [Compound 24, 2-(benzo[d]oxazol-2-ylamino)-4′,5′,7,8-tetrahydro-1H,2′H-spiro[quinazoline-4,3′-thiophen-1,1-dioxide]-5(6H)-one], for which the “GALK Assay Efficacy” value worked out at 67.583 and the 50% inhibitory concentration (IC50) came out at 6.68 µM. As for `O=C1CCCC2=C1C(c1cccc(Cl)c1)N=C(Nc1nc3ccccc3o1)N2` (stereo not shown) [Compound 37], inhibition was half-maximal at 61.1 µM (IC50).

`O=C1CCCC2=C1C(c1ccc(Cl)cc1)N=C(Nc1nc3ccccc3o1)N2` (stereo not shown) [Compound 38] returned a concentration for half-maximal inhibition (IC50) of 68.5 µM. Still for that read-out and setting: in the case of `O=C1CCCC2=C1C(c1ccccc1C(F)(F)F)N=C(Nc1nc3ccccc3o1)N2` (stereo not shown) [Compound 39] it was 12.2 µM.

Regarding `O=C1CCCC2=C1C(c1cccc(C(F)(F)F)c1)N=C(Nc1nc3ccccc3o1)N2` (stereo not shown) [Compound 40], half-maximal inhibition (IC50) required 16.8 µM.

`O=C1CCCC2=C1C(c1ccccc1Br)N=C(Nc1nc3ccccc3o1)N2` (stereo not shown) [Compound 41] gave an IC50 of 0.749 µM. Same read-out and setting: in the case of `O=C1CCCC2=C1C(c1cccc(F)c1)N=C(Nc1nc3ccccc3o1)N2` (stereo not shown) [Compound 42] it was 68.5 µM; in that of `COc1ccccc1C1N=C(Nc2nc3ccccc3o2)NC2=C1C(=O)CCC2` (stereo not shown) [Compound 43], 48.5 µM.

On to `COc1cccc(C2N=C(Nc3nc4ccccc4o3)NC3=C2C(=O)CCC3)c1` (stereo not shown) [Compound 44], for which inhibition was half-maximal at 18.8 µM (IC50).

`COc1ccc(C2N=C(Nc3nc4ccccc4o3)NC3=C2C(=O)CCC3)cc1` (stereo not shown) [Compound 45] returned a concentration for half-maximal inhibition (IC50) of 61.1 µM. `Cc1cccc(C2N=C(Nc3nc4ccccc4o3)NC3=C2C(=O)CCC3)c1` (stereo not shown) [Compound 46] returned a half-inhibitory concentration (IC50) of 61.1 µM.

`Cc1ccc(C2N=C(Nc3nc4ccccc4o3)NC3=C2C(=O)CCC3)cc1` (stereo not shown) [Compound 47] displayed an IC50 of 61.1 µM. The same measure, in the same setting: in the case of `Cc1ccc(C2N=C(Nc3nc4ccccc4o3)NC3=C2C(=O)CCC3)s1` (stereo not shown) [Compound 48] it was 61.1 µM; in that of `O=C1CCCC2=C1C(c1ccncc1)N=C(Nc1nc3ccccc3o1)N2` (stereo not shown) [Compound 50], 42.1 µM. On the same count and under the same terms, for `O=C1CCCC2=C1C(c1ccc(F)cc1)N=C(Nc1nc3ccccc3o1)N2` (stereo not shown) [Compound 51] the value was 61.1 µM; for `O=C1CCCC2=C1C(c1ccccc1)N=C(Nc1nc3ccccc3o1)N2` (stereo not shown) [Compound 52], 34.3 µM; for `CN(C)c1ccc(C2N=C(Nc3nc4ccccc4o3)NC3=C2C(=O)CCC3)cc1` (stereo not shown) [Compound 53], 76.9 µM. `O=C1CCCC2=C1C(c1ccncc1Cl)N=C(Nc1nc3ccccc3o1)N2` (stereo not shown) [Compound 55]: it took 15.3 µM to reach half-maximal inhibition (IC50). On the same count and under the same terms, in the case of `O=C1CCCC2=C1C(c1ccccc1Cl)N=C(Nc1nc3ccccc3o1)N2` (stereo not shown) [Compound 57] it was 2.66 µM; in that of `O=C1CCCC2=C1C(c1ncccc1C(F)(F)F)N=C(Nc1nc3ccccc3o1)N2` (stereo not shown) [Compound 58], 6.68 µM. The compound `O=C1CCCC2=C1C(c1cnccc1C(F)(F)F)N=C(Nc1nc3ccccc3o1)N2` (stereo not shown) [Compound 59] displayed an IC50 of 6.68 µM. Still for that read-out and setting: for `O=C1CCCC2=C1C(c1c(Cl)cccc1Cl)N=C(Nc1nc3ccccc3o1)N2` (stereo not shown) [Compound 60] the value was 13 µM.

Compound `O=C1CCCC2=C1C(c1cccnc1Cl)N=C(Nc1nc3ccccc3o1)N2` (stereo not shown) [Compound 61] displayed an IC50 of 18.8 µM. Consider `O=C1CCCC2=C1C(c1cccnc1Br)N=C(Nc1nc3ccccc3o1)N2` (stereo not shown) [Compound 63], for which the IC50 came to 14.6 µM. Still for that read-out and setting: for `Cn1ncc(Cl)c1C1N=C(Nc2nc3ccccc3o2)NC2=C1C(=O)CCC2` (stereo not shown) [Compound 64] the value was 36.6 µM; for `Cc1ccsc1C1N=C(Nc2nc3ccccc3o2)NC2=C1C(=O)CCC2` (stereo not shown) [Compound 65], 9.19 µM.

Turning to `O=C1CCCC2=C1C(c1ccccc1I)N=C(Nc1nc3ccccc3o1)N2` (stereo not shown) [Compound 66], 1.16 µM corresponded to half-maximal inhibition (IC50). On the same count and under the same terms, for `O=C1CCCC2=C1C(c1ncccc1Br)N=C(Nc1nc3ccccc3o1)N2` (stereo not shown) [Compound 67] the value was 0.651 µM. On the same count and under the same terms, in the case of `O=C1CCCC2=C1C(c1ccncc1Br)N=C(Nc1nc3ccccc3o1)N2` (stereo not shown) [Compound 68] it was 1.46 µM; in that of `O=C1CCCC2=C1C(c1n[nH]cc1Br)N=C(Nc1nc3ccccc3o1)N2` (stereo not shown) [Compound 69], 2.91 µM. `Cn1cc(Br)c(C2N=C(Nc3nc4ccccc4o3)NC3=C2C(=O)CCC3)n1` (stereo not shown) [Compound 70] showed a 50% inhibitory concentration (IC50) of 2.91 µM. The same measure, in the same setting: for `O=C1CCCC2=C1C(c1ccncc1Br)N=C(Nc1nc3ccccc3o1)N2` (stereo not shown) [Compound 71] the value was 20.6 µM. Still for that read-out and setting: for `O=C1CCCC2=C1C(c1ccn[nH]1)N=C(Nc1nc3ccccc3o1)N2` (stereo not shown) [Compound 73] the value was 14.6 µM; for `Cc1cc(C2N=C(Nc3nc4ccccc4o3)NC3=C2C(=O)CCC3)n[nH]1` (stereo not shown) [Compound 74], 18.3 µM; for `O=C1CCCC2=C1C(c1n[nH]cc1Cl)NC(Nc1nc3ccccc3o1)=N2` (stereo not shown) [Compound 75], 2.91 µM. Still for that read-out and setting: in the case of `CC1=C(C(=O)Nc2ccccc2Cl)C(c2ccccc2Br)N=C(Nc2nc3ccccc3o2)N1` (stereo not shown) [Compound 76] it was 3.26 µM; in that of `CC1=C(C(=O)Nc2ccc(Cl)cc2)C(c2ccccc2Br)N=C(Nc2nc3ccccc3o2)N1` (stereo not shown) [Compound 77], 5.17 µM; in that of `CC1=C(C(=O)Nc2ccccc2C)C(c2ccccc2Br)N=C(Nc2nc3ccccc3o2)N1` (stereo not shown) [Compound 78], 4.61 µM. Consider `COc1ccc(NC(=O)C2=C(C)NC(Nc3nc4ccccc4o3)=NC2c2ccccc2Br)cc1` (stereo not shown) [Compound 81], for which inhibition was half-maximal at 3.26 µM (IC50). The same measure, in the same setting: for `CC1=C(C(=O)n2ccc3ccccc32)C(c2ccccc2Br)N=C(Nc2nc3ccccc3o2)N1` (stereo not shown) [Compound 82] the value was 18.3 µM; for `CC1=C(C(=O)N(C)c2ccccc2C)C(c2ccccc2Br)N=C(Nc2nc3ccccc3o2)N1` (stereo not shown) [Compound 83], 10.3 µM; for `CC1=C(C(=O)Nc2ccon2)C(c2ccccc2Br)N=C(Nc2nc3ccccc3o2)N1` (stereo not shown) [Compound 84], 5.8 µM. On the same count and under the same terms, for `CC1=C(C(=O)Nc2nncs2)C(c2ccccc2Br)N=C(Nc2nc3ccccc3o2)N1` (stereo not shown) [Compound 86] the value was 3.26 µM; for `CC1=C(C(=O)NC2CCCCC2)C(c2ccccc2Br)N=C(Nc2nc3ccccc3o2)N1` (stereo not shown) [Compound 89], 9.19 µM; for `CC1=C(C(=O)Nc2ccccc2)C(c2ccccc2Br)N=C(Nc2nc3ccccc3o2)N1` (stereo not shown) [Compound 90], 9.19 µM.
